According to ChEMBL document CHEMBL5608141, “Identification of compartment-specific drug sensitivities in CRC organoid-stroma co-cultures” (2024):

Assays:
Type in all cases: functional, Homo sapiens
Parameters in all cases: dose or concentration left out as unconfirmed
Colon cancer organoid [1] = experiment: Identification of compartment-specific drug sensitivities in O06 CRC organoid-stroma F06 CAF co-cultures. Organoid is transduced with Lucferase2-P2A-EGFP lentivirus, fibroblast with Renilla-dsRed lentivirus. Dual-Glo Luciferase assay is used to report viability data.
Colon cancer organoid [2] = experiment: Identification of compartment-specific drug sensitivities in O14 CRC organoid-stroma F14 CAF co-cultures. Organoid is transduced with Lucferase2-P2A-EGFP lentivirus, fibroblast with Renilla-dsRed lentivirus. Dual-Glo Luciferase assay is used to report viability data.
Colon cancer organoid [3] = experiment: Identification of compartment-specific drug sensitivities in O20 CRC organoid-stroma F20 CAF co-cultures. Organoid is transduced with Lucferase2-P2A-EGFP lentivirus, fibroblast with Renilla-dsRed lentivirus. Dual-Glo Luciferase assay is used to report viability data.
[4] = Transduced with Lucferase2-P2A-EGFP lentivirus
[5] = Transduced with Renilla-dsRed lentivirus

SMILES | Cell Viability (Colon cancer organoid [1]; [4]) | Cell Viability (Colon cancer organoid [1]; [5]) | Cell Viability (Colon cancer organoid [2]; [4]) | Cell Viability (Colon cancer organoid [2]; [5]) | Cell Viability (Colon cancer organoid [3]; [4]) | Cell Viability (Colon cancer organoid [3]; [5])
Cn1cc(-c2ccc3occ(-c4ccccc4-c4ccccc4)c3n2)cn1 | 43.2566% | 104.957% | 109.875% | 78.5125% | 88.7548% | 89.3741%
CC1=C(C)C(=O)C(C(C)(C)CC(=O)N(CCCCSC[C@H]2O[C@@H](n3cnc4c(N)ncnc43)[C@@H]3OC(C)(C)O[C@@H]32)Cc2cccc(-c3ccc(Cl)cc3)c2)=C(C)C1=O | 82.0361% | 129.013% | 94.9972% | 94.497% | 98.0775% | 117.278%
COc1cc(N2CCC(O)CC2)ccc1Nc1cc(Nc2ccccc2S(=O)(=O)C(C)C)c2cc[nH]c2n1 | 85.241% | 81.2438% | 92.4485% | 85.3579% | 108.341% | 84.332%
CCOc1ccc(S(=O)(=O)Nc2ccc(Cl)cc2C#Cc2cnc(C(=O)[O-])cc2OC)c2ncccc12.[K+] | 117.764% | 113.31% | 103.028% | 89.48% | 110.493% | 117.362%
CN(C)C(=O)/C(C#N)=C/c1ccc(-c2nc3cnc4c(ccn4C)c3n2C2CCCCC2)o1 | 28.6002% | 127.582% | 110.125% | 86.2886% | 49.7098% | 127.191%
C=CC(=O)Nc1cccc(C(=O)Nc2ccc(Nc3cc(-c4[nH]c(SC)nc4C)ccn3)cc2)c1 | 87.3077% | 89.5907% | 116.406% | 116.909% | 175.79% | 71.728%
C=CC(=O)Nc1ccc2[nH]c(=O)n(C3CCN(C(=O)c4ccc(-c5nc6cc[nH]c(=O)c6cc5-c5ccccc5)cc4)CC3)c2c1 | 100.634% | 129.997% | 66.8064% | 102.36% | 102.668% | 80.5582%
CN[C@@H]1C[C@H]2O[C@@](C)([C@@H]1OC)n1c3ccccc3c3c4c(c5c6ccccc6n2c5c31)C(=O)NC4 [STAUROSPORINE] | 0.2458% | 0.5911% | 0.5717% | 0.4831% | 0.3702% | 0.5055%
CNC(=O)c1cc(C(=O)N[C@H]2[C@@H]3COC[C@@H]32)cc2c1O[C@H](CF)[C@H]2c1ccccc1 [GSK973] | 110.942% | 170.924% | 99.5313% | 122.198% | 97.9061% | 135.509%
CN(C)[C@@H]1CCN(c2cc(-c3ccccc3)nc3ccnn23)C1 [(R)-ZINC-3573] | 122.992% | 121.371% | 83.9602% | 82.5117% | 97.984% | 99.7993%
C=CC(=O)Nc1ccc2[nH]c(=O)n(C3CCN(Cc4ccc(-c5ccc6c(c5)NC(=O)CO6)cc4)CC3)c2c1 [RL2578] | 88.4189% | 104.707% | 83.2796% | 87.8699% | 101.642% | 98.7435%
CN1CCN(c2ccnc(NCCc3ccccc3)n2)CC1 [TP-040n] | 57.9985% | 123.721% | 106.261% | 101.91% | 67.1911% | 97.5889%
Cc1c(NC(=O)c2ccc(C(C)(C)C)cc2)cccc1-c1cn(C)c(=O)c(Nc2ccc(C(=O)N3CCOCC3)cc2)n1 | 105.279% | 113.435% | 92.1091% | 94.7887% | 110.349% | 88.3582%
O=C(NOC[C@H](O)CO)c1ccc(F)c(F)c1Nc1ccc(I)cc1F [MIRDAMETINIB] | 8.8965% | 49.9042% | 7.045% | 23.0385% | 3.902% | 83.5811%
Cc1sc2c(c1C)C(c1ccc(Cl)cc1)=N[C@@H](CC(=O)OC(C)(C)C)c1nnc(C)n1-2 | 24.0633% | 301.325% | 31.858% | 201.171% | 11.1793% | 145.881%
CN(C)C(=O)Cn1cc(-c2nc(C3(c4ccc(-c5cnc(N)nc5)cc4)CC3)no2)cn1 [BI 0153] | 137.539% | 73.6279% | 127.983% | 104.715% | 119.435% | 91.9766%
Cc1cc2c(-c3ccco3)cnc(N[C@@H]3CCN(C)C[C@H]3C(=O)NC3CCCCC3)c2[nH]c1=O [GSK789] | 76.5976% | 134.369% | 52.4382% | 127.289% | 34.1492% | 125.83%
O=C(O)c1ccc(-c2c[nH]c3ncc(-c4ccccc4)cc23)cc1C1CCCC1 [GSK-650394] | 92.5027% | 110.19% | 112.026% | 70.7781% | 93.9419% | 129.576%
Cc1ccc(-c2cnc([C@@]3(O)CC[C@H](C(=O)O)C(C)(C)C3)s2)cc1Nc1cccc(C(F)(F)F)n1 [MRL-SYKi-NC] | 119.382% | 86.5869% | 134.887% | 107.343% | 106.503% | 131.597%
C[C@@H]1CC(=O)Nc2cccc(-c3ccc4c(c3)c(-c3cnn(C)c3)nn4C)c2N1 | 96.7982% | 166.358% | 127.46% | 126.975% | 69.4002% | 148.573%
CC1CCN(c2ccnc(NCc3cn(C)cn3)n2)CC1 [TP-040] | 104.895% | 163.738% | 70.4837% | 82.5883% | 75.5826% | 95.0735%
CC(C)(O)c1cncc(-c2nc3ccc(F)cc3n2C2CC2)c1 [MSD-CYP11B2] | 83.611% | 134.058% | 89.9575% | 101.392% | 80.182% | 128.543%
COc1nc2ccc([C@@](O)(c3ccccc3)C3CCN(C(C)=O)CC3)cc2c(Cl)c1Cc1ccc(-n2cccn2)cc1 [JNJ-54119936] | 97.0001% | 121.742% | 99.4009% | 84.202% | 65.101% | 118.395%
O=C(Nc1cccnn1)N1CC(C/C=C/c2cncc(Oc3ccc(C(F)(F)F)cn3)n2)C1 | 130.234% | 92.9489% | 132.074% | 108.992% | 97.9448% | 112.944%
